Experimental data from ChEMBL document CHEMBL1136363, “Rational approaches towards reversible inhibition of type B monoamine oxidase. Design and evaluation of a novel 5H-Indeno[1,2-c]pyridazin-5-one derivative” (Bioorg Med Chem Lett, 2003).

Target: T1, Amine oxidase [flavin-containing] A (Homo sapiens, UniProt P21397)
T1 sequence (P21397 whole entry): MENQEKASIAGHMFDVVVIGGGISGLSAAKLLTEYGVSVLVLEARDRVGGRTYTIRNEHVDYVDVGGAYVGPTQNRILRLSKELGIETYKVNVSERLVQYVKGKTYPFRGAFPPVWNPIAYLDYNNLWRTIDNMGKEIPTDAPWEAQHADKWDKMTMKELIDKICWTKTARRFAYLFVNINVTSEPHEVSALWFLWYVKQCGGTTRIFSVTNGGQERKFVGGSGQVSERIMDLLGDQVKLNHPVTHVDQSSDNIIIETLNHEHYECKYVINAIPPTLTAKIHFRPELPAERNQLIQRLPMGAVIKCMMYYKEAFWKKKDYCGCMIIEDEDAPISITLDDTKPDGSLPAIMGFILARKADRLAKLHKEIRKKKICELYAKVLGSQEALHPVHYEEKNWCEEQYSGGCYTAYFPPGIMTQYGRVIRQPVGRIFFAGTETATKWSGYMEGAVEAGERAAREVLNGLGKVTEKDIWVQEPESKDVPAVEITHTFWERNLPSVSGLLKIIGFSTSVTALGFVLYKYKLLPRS
Experiment: Inhibitory concentration against Monoamine oxidase A in human placenta.

Work on Cc1cc2c(nn1)-c1cc(OCCCC(F)(F)F)ccc1C2=O yielded a Ki of about 100 µM.
